Literature values in patent US20260283918A1, “AZELAIC ACID/BETAINE/PANTHENOL SELF-RECOGNITION DES SYSTEM AND PREPARATION METHOD” (Wuxi Zhiyan Biotechnology Co., LTD, priority 2023, published 2026).

Settings: water and oil

O=C(O)CCCCCCCC(=O)O [azelaic acid]
solubility of azelaic acid: poor solubility in both water and oil
